Measured values: US20230265151A1, “GIP/GLP1 CO-AGONIST COMPOUNDS” (priority 2020, published 2023)
Read-outs that look alike come from different tables or passages of the source.

What was measured:
hGLP-1R = hGLP-1R (Homo sapiens, UniProt P43220); test: Functional cAMP formation (HTRF) in HEK-293 clonal cells expressing hGLP-1R, 0.1% bovine casein, without or with 1.0% human serum albumin; assay type: cell-based; set-up: expressed in transfected cells; settings: 37° C.; for EC50: 0.1% bovine casein and 1.0% human serum albumin, geometric mean, read-out: hGLP-1R EC50, nM (SEM, n); for Emax: HEK293, percent of maximal response to GLP-1(7-36)NH2, 0.1% bovine casein, arithmetic mean, read-out: hGLP-1R Emax, % ± SEM
hGLP-1R, sequence (P43220 24-463): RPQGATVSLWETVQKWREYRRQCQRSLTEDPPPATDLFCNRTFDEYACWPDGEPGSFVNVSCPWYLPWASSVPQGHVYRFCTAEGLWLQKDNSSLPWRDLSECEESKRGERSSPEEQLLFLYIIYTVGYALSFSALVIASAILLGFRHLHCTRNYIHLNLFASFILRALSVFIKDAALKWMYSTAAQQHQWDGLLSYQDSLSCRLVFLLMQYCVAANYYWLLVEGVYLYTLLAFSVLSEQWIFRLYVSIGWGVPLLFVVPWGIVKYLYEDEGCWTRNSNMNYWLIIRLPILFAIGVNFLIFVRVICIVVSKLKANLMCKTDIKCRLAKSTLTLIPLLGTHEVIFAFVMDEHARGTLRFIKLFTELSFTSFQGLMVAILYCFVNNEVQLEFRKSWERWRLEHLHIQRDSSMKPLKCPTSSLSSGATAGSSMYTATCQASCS
Outline: (§1)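 Cells were stimulated with peptide for 30 min at 37° C, then lysed in buffer carrying cAMP-d2 and anti-cAMP Eu3+-cryptate for a competitive HTRF read after at least 60 min at room temperature. The 665/620 nm ratio was converted to nM cAMP against a standard curve.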

[1] = target: T1, human GLP-1 receptor (hGLP-1R) (Homo sapiens, UniProt P43220); test: [125I]-GLP-1 binding, SPA with membranes of HEK293 cells expressing hGLP-1R; settings: human GLP-1R; geometric mean (SEM, n); read-out: Binding Affinity Ki, nM (SEM, n) hGLP-1R
T1 construct: expressed in transfected cells; crude membranes
T1 sequence (P43220 24-463): as above
Protocol: Two methods are used for the preparation of crude cell membranes.
Method 1: Frozen cell pellets are lysed on ice in hypotonic buffer containing 50 mM Tris HCl, pH 7.5, and Roche Complete™ Protease Inhibitors with EDTA. […] The homogenate is centrifuged at 4° C. at 1100 × g for 10 minutes. The supernatant is collected and stored on ice while the pellets are resuspended in homogenization buffer and rehomogenized as described above. The homogenate is centrifuged at 1100 × g for 10 minutes. The second supernatant is combined with the first supernatant and centrifuged at 35000 × g for 1 hour at 4° C. The resulting membrane pellet is resuspended in homogenization buffer containing protease inhibitors at approximately 1 to 3 mg/mL, quick frozen in liquid nitrogen and stored as aliquots in a -80° C. freezer until use.
The homogenate is centrifuged at 4° C. at 1800 × g for 15 minutes. The supernatant is collected and stored on ice while the pellets are resuspended in homogenization buffer (without DNAse I) and rehomogenized as described above. The homogenate is centrifuged at 1800 × g for 15 minutes. The second supernatant is combined with the first supernatant and centrifuged an additional time at 1800 × g for 15 minutes. The overall supernatant is then centrifuged at 25000 × g for 30 minutes at 4° C. The resulting membrane pellet is resuspended in homogenization buffer (without DNAse I) containing protease inhibitors at approximately 1 to 3 mg/mL and stored as aliquots in a -80° C. freezer until use.
The human GLP-1 receptor binding assay is performed using an SPA format with WGA beads. The binding buffer contains 25 mM HEPES, pH 7.4, 2.5 mM CaCl2, 1 mM MgCl2, 0.1% (w/v) bacitracin, 0.003% (w/v) TWEEN®-20, and Roche Complete™ Protease Inhibitors without EDTA.
Raw CPM data for concentration curves of peptides, Gcg, GLP-1, or GIP are converted to percent inhibition by subtracting nonspecific binding (binding in the presence of excess unlabeled Gcg, GLP-1, or GIP, respectively) from the individual CPM values and dividing by the total binding signal, also corrected by subtracting nonspecific binding. Data are analyzed using four-parameter (curve maximum, curve minimum, IC50, Hill slope) nonlinear regression routines (Genedata Screener, version 12.0.4, Genedata AG, Basal, Switzerland). […] Values for Ki are reported as the geometric mean, with error expressed as the standard error of the mean (SEM) and n is equal to the number of independent replicates (determined in assays performed on different days). Geometric Means are calculated as follows: […]
The Ki Ratio (Ki for native control peptide/Ki for test compound) at each receptor and each species is calculated. The Ki Ratio is a rapid indication of the apparent affinity of a peptide compared to the native control peptide.
n=⅟x means that only one value out of the total number of replicates (x) is used to express the mean. SEM is only calculated when n=2 or greater non-qualified results exist. Means are expressed as GeoMetric means with the standard error of the mean (SEM) and the number of replicates (n) indicated in parenthesis.

hGIPR = target: T2, hGIPR (Homo sapiens, UniProt P48546); test: Functional cAMP formation (HTRF) in HEK-293 clonal cells expressing hGIPR, 0.1% bovine casein, without or with 1.0% human serum albumin; assay type: cell-based; settings: for EC50: geometric mean, read-out: hGIPR EC50, nM (SEM, n); for Emax: read-out: hGIPR Emax, % ± SEM
T2 construct: expressed in transfected cells
T2 sequence (P48546 22-466): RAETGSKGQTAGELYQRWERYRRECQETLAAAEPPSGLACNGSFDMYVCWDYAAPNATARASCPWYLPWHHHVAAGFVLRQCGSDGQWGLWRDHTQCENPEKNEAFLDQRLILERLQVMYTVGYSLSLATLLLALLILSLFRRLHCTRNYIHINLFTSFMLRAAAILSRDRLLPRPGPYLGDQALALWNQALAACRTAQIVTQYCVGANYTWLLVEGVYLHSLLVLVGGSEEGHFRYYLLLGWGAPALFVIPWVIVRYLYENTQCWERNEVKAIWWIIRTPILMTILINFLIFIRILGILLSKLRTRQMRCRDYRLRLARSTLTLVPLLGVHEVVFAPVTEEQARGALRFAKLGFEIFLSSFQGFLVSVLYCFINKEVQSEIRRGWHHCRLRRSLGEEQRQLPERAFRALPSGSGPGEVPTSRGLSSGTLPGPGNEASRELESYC
Outline: as §1

hGCGR = target: T3, hGCGR (Homo sapiens, UniProt P47871); test: Functional cAMP formation (HTRF) in HEK-293 clonal cells expressing hGCGR, 0.1% bovine casein, without or with 1.0% human serum albumin; assay type: cell-based; settings: geometric mean, read-out: hGCGR EC50, nM (SEM, n)
T3 construct: expressed in transfected cells
T3 sequence (P47871 26-477): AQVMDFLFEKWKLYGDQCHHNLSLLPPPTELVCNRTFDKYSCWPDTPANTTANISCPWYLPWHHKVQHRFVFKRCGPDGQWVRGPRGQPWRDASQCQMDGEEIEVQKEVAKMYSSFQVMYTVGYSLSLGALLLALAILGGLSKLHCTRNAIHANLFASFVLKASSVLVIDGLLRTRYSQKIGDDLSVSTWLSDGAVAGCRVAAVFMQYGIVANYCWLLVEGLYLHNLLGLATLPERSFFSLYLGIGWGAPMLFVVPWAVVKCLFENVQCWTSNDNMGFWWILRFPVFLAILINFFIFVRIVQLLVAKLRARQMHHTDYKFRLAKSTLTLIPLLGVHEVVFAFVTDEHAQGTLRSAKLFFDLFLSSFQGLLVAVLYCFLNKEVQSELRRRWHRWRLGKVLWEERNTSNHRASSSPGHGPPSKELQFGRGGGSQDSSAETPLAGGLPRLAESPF
Outline: as §1

[2] = 0.1% bovine casein and 1.0% human serum albumin, 37° C.
[3] = HEK293, 0.1% bovine casein and 1.0% human serum albumin, 37° C., percent of maximal response to GIP(1-42)NH2
[4] = cAMP, incubated at 37° C., 0.1% bovine casein (no human serum albumin)
[5] = HEK293, percent of maximal response to GIP(1-42)NH2, 37° C., 0.1% bovine casein, arithmetic mean

| SMILES | EC50 (hGLP-1R) [nM] | Emax (hGLP-1R) [%] | Ki [1] [nM] | EC50 (hGIPR; [2]) [nM] | Emax (hGIPR; [3]) [%] | EC50 (hGCGR; [2]) [nM] | EC50 (hGCGR; [4]) [nM] | Emax (hGIPR; [5]) [%] | EC50 (hGIPR; [4]) [nM] |
| --- | --- | --- | --- | --- | --- | --- | --- | --- | --- |
| CCCCCCCCCCCCCCCC(=O)N[C@@H](CCC(=O)NCCOCCOCC(=O)NCCOCCOCC(=O)NCCCC[C@H](NC(=O)[C@H](CCCN)NC(=O)[C@H](CC(=O)O)NC(=O)[C@H](CC(C)C)NC(=O)[C@](C)(CC(C)C)NC(=O)[C@@H](NC(=O)[C@H](CO)NC(=O)[C@H](CCCCNC(=O)COCCOCCNC(=O)COCCOCCNC(=O)CC[C@H](NC(=O)CCCCCCCCCCCCCCC)C(=O)O)NC(=O)[C@H](CC(=O)O)NC(=O)[C@H](CO)NC(=O)[C@@H](NC(=O)[C@](C)(Cc1ccccc1F)NC(=O)[C@@H](NC(=O)CNC(=O)[C@H](CCC(=O)O)NC(=O)C(C)(C)NC(=O)[C@@H](N)Cc1ccc(O)cc1)[C@@H](C)O)[C@@H](C)O)[C@@H](C)CC)C(=O)N[C@@H](C)C(=O)N[C@@H](CCC(N)=O)C(=O)NC(C)(C)C(=O)N[C@@H](CCC(=O)O)C(=O)N[C@@H](Cc1ccccc1)C(=O)N[C@H](C(=O)N[C@H](CCC(=O)O)C(=O)N[C@@](C)(Cc1ccc(O)cc1)C(=O)N[C@@H](CC(C)C)C(=O)N[C@H](C(=O)N[C@@H](CCC(=O)O)C(=O)NCC(=O)NCC(=O)N1CCC[C@H]1C(=O)N[C@@H](CO)C(=O)N[C@@H](CO)C(=O)NCC(=O)N[C@@H](C)C(=O)N1CCC[C@H]1C(=O)N1CCC[C@H]1C(=O)N1CCC[C@H]1C(=O)N[C@@H](CO)C(N)=O)[C@@H](C)CC)[C@@H](C)CC)C(=O)O [Example 29] | 0.876 | 100 ± 6.65 | 0.412 | 0.472 | 96.9 ± 5.32 | > 9950 | > 9950 | – | – |
| CC[C@H](C)[C@H](NC(=O)[C@H](CC(C)C)NC(=O)[C@](C)(Cc1ccc(O)cc1)NC(=O)[C@@H](CCC(=O)O)NC(=O)[C@@H](NC(=O)[C@H](Cc1ccccc1)NC(=O)[C@H](CCC(=O)O)NC(=O)C(C)(C)NC(=O)[C@H](CCC(N)=O)NC(=O)[C@H](C)NC(=O)[C@H](CCCCNC(=O)COCCOCCNC(=O)COCCOCCNC(=O)[C@@H](N)CCCCNC(=O)CCCCCCCCCCCCC(=O)O)NC(=O)[C@H](CCCN)NC(=O)[C@H](CC(=O)O)NC(=O)[C@H](CC(C)C)NC(=O)[C@](C)(CC(C)C)NC(=O)[C@@H](NC(=O)[C@H](CO)NC(=O)[C@H](Cc1ccncc1)NC(=O)[C@H](CC(=O)O)NC(=O)[C@H](CO)NC(=O)[C@@H](NC(=O)[C@](C)(Cc1ccccc1F)NC(=O)[C@@H](NC(=O)CNC(=O)[C@H](CCC(=O)O)NC(=O)C(C)(C)NC(=O)[C@@H](N)Cc1ccc(O)cc1)[C@@H](C)O)[C@@H](C)O)[C@@H](C)CC)[C@@H](C)CC)C(=O)N[C@@H](CCC(=O)O)C(=O)NCC(=O)NCC(=O)N[C@@H](CCCCNC(=O)COCCOCCNC(=O)COCCOCCNC(=O)[C@@H](N)CCCCNC(=O)CCCCCCCCCCCCC(=O)O)C(=O)N[C@@H](CO)C(=O)N[C@@H](CO)C(=O)NCC(=O)N[C@@H](C)C(=O)N1CCC[C@H]1C(=O)N1CCC[C@H]1C(=O)N1CCC[C@H]1C(=O)N[C@@H](CO)C(N)=O [Example 33] | 4.35 | – | 1.34 | 0.0941 | 92 ± 1.02 | > 9950 | > 9950 | 97.6 ± 2.45 | – |
| CC[C@H](C)[C@H](NC(=O)[C@H](CC(C)C)NC(=O)[C@](C)(Cc1ccc(O)cc1)NC(=O)[C@@H](CCC(=O)O)NC(=O)[C@@H](NC(=O)[C@H](Cc1ccccc1)NC(=O)[C@H](CCC(=O)O)NC(=O)C(C)(C)NC(=O)[C@H](CCC(N)=O)NC(=O)[C@H](C)NC(=O)[C@H](CCCCNC(=O)COCCOCCNC(=O)COCCOCCNC(=O)CC[C@H](NC(=O)CCCCCCCCCCCCC(=O)O)C(=O)O)NC(=O)[C@H](CCCN)NC(=O)[C@H](CC(=O)O)NC(=O)[C@H](CC(C)C)NC(=O)[C@](C)(CC(C)C)NC(=O)[C@@H](NC(=O)[C@](C)(CO)NC(=O)[C@H](Cc1ccc(O)cc1)NC(=O)[C@H](CC(=O)O)NC(=O)[C@H](CO)NC(=O)[C@@H](NC(=O)[C@](C)(Cc1ccccc1F)NC(=O)[C@@H](NC(=O)CNC(=O)[C@H](CCC(=O)O)NC(=O)C(C)(C)NC(=O)[C@@H](N)Cc1ccc(O)cc1)[C@@H](C)O)[C@@H](C)O)[C@@H](C)CC)[C@@H](C)CC)C(=O)N[C@@H](CCC(=O)O)C(=O)NCC(=O)NCC(=O)N[C@@H](CCCCNC(=O)COCCOCCNC(=O)COCCOCCNC(=O)CC[C@H](NC(=O)CCCCCCCCCCCCC(=O)O)C(=O)O)C(=O)N[C@@H](CO)C(=O)N[C@@H](CO)C(=O)NCC(=O)N[C@@H](C)C(=O)N1CCC[C@H]1C(=O)N1CCC[C@H]1C(=O)N1CCC[C@H]1C(=O)N[C@@H](CO)C(N)=O [Example 49] | – | 97.3 ± 5.46 | 1.21 | – | 92.4 ± 4.07 | > 9950 | > 9950 | 91 ± 1.7 | 0.0205 |
